In US5807855A, “1-piperazino-1,2-dihydroindene derivatives” (priority 1992, dated 1998):
Like-named read-outs stand apart in the source and are kept apart here.

Legend:
5-HT2 receptors = molecular target: T1, 5-HT2 receptors (Rattus norvegicus, UniProt P14842); assay: Inhibition of 3H-ketanserin binding to 5-HT2 receptors in membranes from rat cortex; settings: Receptor Binding, IC50, 5-HT2 3H-Ket
T1 construct: 5-HT2 receptors in membranes from rat cortex; from tissue; host or cells: membranes from rat cortex
Procedure: Receptor binding studies.
5-HT2 receptors. Inhibition of ^3 H-ketanserin binding to 5-HT2 receptors in membranes from rat cortex was determined as described by Hyttel, J. Acta. Pharmacol. Toxicol.

DA D2 receptors = molecular target: T2, DA D2 receptors (Rattus norvegicus, UniProt P61169); assay: Inhibition of 3H-spiperone binding to DA D2 receptors in rat striatal membranes; settings: rat striatal membranes, 3H-spiperone; read-out: Receptor Binding; IC50, D2 3H-Spi
T2 construct: DA D2 receptors in rat striatal membranes; from tissue; host or cells: rat striatal membranes

DA D1 receptor = DA D1 receptor (Rattus norvegicus, UniProt P18901); assay: biochemical; format: binding; settings: IC50, D1 3H-SCH
[1] = rat striatal membranes, 3H-SCH 23390, read-out: Receptor Binding

T2 sequence (P61169 whole entry): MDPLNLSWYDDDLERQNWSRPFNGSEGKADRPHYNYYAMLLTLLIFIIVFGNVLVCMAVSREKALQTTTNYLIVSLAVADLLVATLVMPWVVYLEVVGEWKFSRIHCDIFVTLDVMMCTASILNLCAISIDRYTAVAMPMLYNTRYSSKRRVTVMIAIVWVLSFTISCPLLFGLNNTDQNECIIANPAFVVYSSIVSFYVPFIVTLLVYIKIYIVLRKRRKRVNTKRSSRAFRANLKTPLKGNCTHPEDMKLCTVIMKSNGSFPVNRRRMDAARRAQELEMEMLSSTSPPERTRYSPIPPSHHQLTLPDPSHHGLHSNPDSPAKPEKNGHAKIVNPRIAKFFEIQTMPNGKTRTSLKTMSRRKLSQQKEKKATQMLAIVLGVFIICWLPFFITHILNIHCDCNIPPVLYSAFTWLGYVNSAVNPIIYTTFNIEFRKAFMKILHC
T1 sequence (P14842 whole entry): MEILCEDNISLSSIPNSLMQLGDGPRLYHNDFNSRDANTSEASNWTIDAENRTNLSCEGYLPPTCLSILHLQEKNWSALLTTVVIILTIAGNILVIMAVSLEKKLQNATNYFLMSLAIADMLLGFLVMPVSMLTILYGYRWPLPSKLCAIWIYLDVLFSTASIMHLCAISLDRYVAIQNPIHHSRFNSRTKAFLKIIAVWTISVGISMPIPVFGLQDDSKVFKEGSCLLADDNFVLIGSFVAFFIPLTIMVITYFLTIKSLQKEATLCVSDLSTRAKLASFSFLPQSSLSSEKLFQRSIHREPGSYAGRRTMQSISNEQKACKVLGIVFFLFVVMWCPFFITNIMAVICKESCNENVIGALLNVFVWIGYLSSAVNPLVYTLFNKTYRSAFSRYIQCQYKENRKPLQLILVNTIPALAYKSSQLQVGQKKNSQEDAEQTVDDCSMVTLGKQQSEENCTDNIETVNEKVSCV
DA D1 receptor, sequence (P18901 whole entry): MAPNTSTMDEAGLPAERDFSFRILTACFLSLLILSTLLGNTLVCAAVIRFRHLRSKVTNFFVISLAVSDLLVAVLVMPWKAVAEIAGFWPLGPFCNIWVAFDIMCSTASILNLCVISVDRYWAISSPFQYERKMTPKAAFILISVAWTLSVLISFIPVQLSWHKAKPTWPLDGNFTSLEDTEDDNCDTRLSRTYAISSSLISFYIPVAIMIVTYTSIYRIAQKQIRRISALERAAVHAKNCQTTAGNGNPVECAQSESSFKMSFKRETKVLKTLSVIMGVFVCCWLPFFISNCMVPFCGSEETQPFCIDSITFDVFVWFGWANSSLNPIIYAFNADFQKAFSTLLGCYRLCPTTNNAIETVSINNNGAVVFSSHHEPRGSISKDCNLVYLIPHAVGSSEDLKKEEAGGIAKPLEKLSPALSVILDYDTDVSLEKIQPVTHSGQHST

| SMILES | IC50 (5-HT2 receptors) | IC50 (DA D2 receptors) | IC50 (DA D1 receptor; Receptor Binding) | IC50 (DA D1 receptor; [1]) |
| --- | --- | --- | --- | --- |
| CN1CCN([C@@H]2C[C@@H](c3ccc(F)cc3)c3ccc(Br)cc32)CC1(C)C (racemic) [Compound 8, (±)-Trans-4-[6-bromo-3-(4-fluorophenyl)-2,3-dihydro-1H-inden-1-yl]-1,2,2-trimethylpiperazine] | 3 nM | 8.6 nM | 1.8 nM |  |
| Cc1ccc2c(c1)[C@H](N1CCN(C)C(C)(C)C1)C[C@H]2c1ccc(F)cc1 (racemic) [Compound 5, (±)-Trans-4-[6-methyl-3-(4-fluorophenyl)-2,3-dihydro-1H-inden-1-yl]-1,2,2-trimethylpiperazine] | 3.4 nM | 4.8 nM | 2.1 nM |  |
| CCC1(CC)CN([C@@H]2C[C@@H](c3ccc(F)cc3)c3ccc(Cl)cc32)CCN1 (racemic) [Compound 23, (±)-Trans-4-[6-chloro-3-(4-fluorophenyl)-2,3-dihydro-1H-inden-1-yl]-2,2-diethylpiperazine] | 11 nM | 36 nM |  | 4.7 nM |
| CC(C)C1CN([C@@H]2C[C@@H](c3ccc(F)cc3)c3ccc(Cl)cc32)CCN1 (relative stereo) [Compound 20, Trans-4-[6-chloro-3-(4-fluorophenyl)-2,3-dihydro-1H-inden-1-yl]-2-(2-propyl)piperazine] | 8.8 nM | 130 nM |  | 6 nM |
| CN1CCN([C@@H]2C[C@@H](c3ccc(F)cc3)c3cccc(Cl)c32)CC1(C)C (racemic) [Compound 17, (±)-Trans-4-[7-chloro-3-(4-fluorophenyl)-2,3-dihydro-1H-inden-1-yl]-1,2,2-trimethylpiperazine] | 31 nM | 1200 nM | 32 nM |  |
| CC1(C)CN([C@@H]2C[C@@H](c3ccc(F)cc3)c3ccc(Cl)cc32)CCN1 (racemic) [Compound 1, (±)-Trans-4-[6-chloro-3-(4-fluorophenyl)-2,3-dihydro-1H-inden-1-yl]-2,2-dimethylpiperazine] | 3.2 nM | 7.3 nM |  | 2.1 nM |
| CN1CCN([C@@H]2C[C@@H](c3cccc(F)c3)c3ccc(Cl)cc32)CC1(C)C (racemic) [Compound 12, (±)-Trans-4-[6-chloro-3-(3-fluorophenyl)-2,3-dihydro-1H-inden-1-yl]-1,2,2-trimethylpiperazine] | 26 nM | 280 nM | 9.6 nM |  |
| Fc1ccc(C2CC(N3CCN4CCCCC4C3)c3cc(F)ccc32)cc1 (stereo not drawn) [Compound 33, 2-[6-fluoro-3-(4-fluorophenyl)-2,3-dihydro-1H-inden-1-yl]-octahydropyrido[1,2-a]-pyrazine] | 28 nM | 320 nM |  | 5.8 nM |
| CN1CCN([C@@H]2C[C@@H](c3ccccc3)c3ccccc32)CC1(C)C (racemic) [Compound 3, (±)-Trans-4-[3-phenyl-2,3-dihydro-1H-inden-1-yl]-1,2,2-trimethyl-piperazine] | 21 nM | 140 nM | 13 nM |  |
| CC(C)C1CN([C@@H]2C[C@@H](c3ccc(F)cc3)c3ccc(Cl)cc32)CCN1 (relative stereo) [Compound 19, Trans-4-[6-chloro-3-(4-fluorophenyl)-2,3-dihydro-1H-inden-1-yl]-2-(2-propyl)piperazine] | 5.6 nM | 38 nM |  | 2.2 nM |
| CC1(C)CN([C@@H]2C[C@@H](c3ccc(F)cc3)c3ccc(Cl)cc32)CCN1CCCO (racemic) [Compound 39, (±)-Trans-4-[6-chloro-3-(4-fluorophenyl)-2,3-dihydro-1H-inden-1-yl]-2,2-dimethyl-1-piperazinepropanol] | 3 nM | 9.8 nM |  | 1.8 nM |
| CN1CCN([C@@H]2C[C@@H](c3ccc(F)cc3)c3cc(Cl)c(Cl)cc32)CC1(C)C (racemic) [Compound 9, (±)-Trans-4-[5,6-dichloro-3-(4-fluorophenyl)-2,3-dihydro-1H-inden-1-yl]-1,2,2-trimethylpiperazine] | 5.9 nM | 44 nM |  | 18 nM |
